Target: T1, FL-AsphyA (Avena sativa, UniProt P06593)
T1 construct: Full-length phytochrome genes of AsPHYA; made in house; host or cells: Pichia pastoris GS115
T1 sequence (P06593 1-1129): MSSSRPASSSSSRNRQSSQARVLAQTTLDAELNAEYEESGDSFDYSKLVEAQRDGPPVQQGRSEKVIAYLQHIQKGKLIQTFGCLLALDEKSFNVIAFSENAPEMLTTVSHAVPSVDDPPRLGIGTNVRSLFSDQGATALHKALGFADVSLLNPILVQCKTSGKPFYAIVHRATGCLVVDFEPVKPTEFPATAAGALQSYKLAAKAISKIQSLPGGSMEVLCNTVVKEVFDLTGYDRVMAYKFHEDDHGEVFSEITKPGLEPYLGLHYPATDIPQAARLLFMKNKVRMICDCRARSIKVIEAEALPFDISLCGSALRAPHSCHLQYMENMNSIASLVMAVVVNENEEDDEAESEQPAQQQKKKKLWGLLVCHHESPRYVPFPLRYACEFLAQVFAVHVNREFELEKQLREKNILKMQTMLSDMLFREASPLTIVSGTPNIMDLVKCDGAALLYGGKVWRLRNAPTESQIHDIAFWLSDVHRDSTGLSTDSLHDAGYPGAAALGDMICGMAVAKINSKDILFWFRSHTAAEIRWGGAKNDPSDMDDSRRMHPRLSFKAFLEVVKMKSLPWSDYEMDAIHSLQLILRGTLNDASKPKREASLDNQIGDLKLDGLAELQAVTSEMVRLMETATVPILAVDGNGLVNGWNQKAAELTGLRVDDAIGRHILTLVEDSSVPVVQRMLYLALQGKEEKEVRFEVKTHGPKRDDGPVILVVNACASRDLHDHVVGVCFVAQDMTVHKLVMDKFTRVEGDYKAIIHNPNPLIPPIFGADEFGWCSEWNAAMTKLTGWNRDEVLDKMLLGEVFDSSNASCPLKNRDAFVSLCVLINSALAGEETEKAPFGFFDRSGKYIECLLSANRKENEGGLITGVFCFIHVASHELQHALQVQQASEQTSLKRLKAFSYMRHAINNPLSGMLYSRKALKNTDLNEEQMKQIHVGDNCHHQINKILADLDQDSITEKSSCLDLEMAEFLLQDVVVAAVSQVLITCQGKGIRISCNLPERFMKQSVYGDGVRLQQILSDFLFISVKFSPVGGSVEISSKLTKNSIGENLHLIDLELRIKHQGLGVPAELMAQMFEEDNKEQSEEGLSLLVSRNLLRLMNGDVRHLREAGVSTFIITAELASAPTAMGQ
Assay: Autophosphorylation and kinase activity assays of 8-azido-ATP-labelled AsphyA
Type: biochemical
Settings: Pfr form of FL-AsphyA, 8-azido-ATP labeling buffer
Experimental: For autophosphorylation assays, reaction mixtures (20 μl) contained kinase buffer (25 mM Tris-HCl, pH 7.8, 0.2 mM EDTA, 4 mM DTT and 5 mM MgCl2) and purified recombinant phytochromes (0.5–1.0 μg) in either Pr or Pfr forms. Phytochrome samples were irradiated with red or far-red light for 15 min before the start of the reaction. Because histone H1 is known to stimulate phytochrome autophosphorylation activity, the same amount of histone H1 (0.5–1.0 μg) was added to the phytochrome samples in the indicated experiments. The conditions for kinase assays were similar to those of phytochrome autophosphorylation experiments, except for addition of a substrate (0.5–1.0 μg). Reactions were started by adding 150 μM ATP containing 10 μCi of (γ-^32P) ATP and incubated at 30 °C for 1 h. […] To verify the proteins loaded, Coomassie blue protein staining and zinc-fluorescence assay were performed before drying. For quantification of the phosphorylation, dried gels were exposed to Fuji imaging plates, and the relative signals of phyA autophosphorylation and PIF3 phosphorylation by phyA were quantitated with a Typhoon FLA 7000 phosphor-imager (GE Healthcare).
Supplementary Figure 11. […] 8-azido-ATP labeled proteins were then detected using avidin-HRP. […] The band intensities were quantified using ImageJ software, and the percentages of 8-azido-ATP labeling were normalized to the 66-610 protein signals. […]

8-N3-ATP-biotin-long chain-hydrazone [8-azido-ATP]
autophosphorylation of 8-azido-ATP-labelled AsphyA: little autophosphorylation | kinase activity (PIF3) of 8-azido-ATP-labelled AsphyA: significantly reduced kinase activity

— article PMC4869175, “Evidence that phytochrome functions as a protein kinase in plant light signalling” (Nature Communications, 2016)
